Patent publication US20090299044A1 (priority 2006, published 2009)
Bridge positions count the residues as written; N and C are the ends. Square brackets hold non-standard residues; d marks the D form. Peptide text beside a SMILES is read from it. 1Nal = N[C@@H](Cc1cccc2ccccc12)C(=O)O

Experiments:
human Kv1.1 (HEK293) = target: T1, human Kv1.1 (HEK293) (Homo sapiens, UniProt Q09470); experiment: cell-based
T1 construct: expressed in transfected cells; host or cells: HEK293

human Kv1.3 (CHO) = target: T2, human Kv1.3 (CHO) (Homo sapiens, UniProt P22001); experiment: cell-based
T2 construct: expressed in transfected cells; host or cells: CHO
T2 sequence (P22001 whole entry): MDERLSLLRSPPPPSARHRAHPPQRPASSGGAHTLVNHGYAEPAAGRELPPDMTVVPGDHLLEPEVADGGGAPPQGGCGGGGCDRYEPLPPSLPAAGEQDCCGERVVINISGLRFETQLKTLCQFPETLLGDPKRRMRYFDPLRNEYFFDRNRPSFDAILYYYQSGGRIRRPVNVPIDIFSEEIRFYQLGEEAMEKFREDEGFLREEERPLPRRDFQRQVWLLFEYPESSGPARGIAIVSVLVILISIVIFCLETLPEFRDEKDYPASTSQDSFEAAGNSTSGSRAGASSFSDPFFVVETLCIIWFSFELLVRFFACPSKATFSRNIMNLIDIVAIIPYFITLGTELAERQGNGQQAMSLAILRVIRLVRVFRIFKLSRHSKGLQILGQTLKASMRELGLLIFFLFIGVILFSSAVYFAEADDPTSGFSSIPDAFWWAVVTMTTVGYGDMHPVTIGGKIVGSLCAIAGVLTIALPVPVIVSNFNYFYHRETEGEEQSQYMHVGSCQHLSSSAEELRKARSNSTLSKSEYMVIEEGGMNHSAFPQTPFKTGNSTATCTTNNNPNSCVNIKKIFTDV

T1 sequence (Q09470 whole entry): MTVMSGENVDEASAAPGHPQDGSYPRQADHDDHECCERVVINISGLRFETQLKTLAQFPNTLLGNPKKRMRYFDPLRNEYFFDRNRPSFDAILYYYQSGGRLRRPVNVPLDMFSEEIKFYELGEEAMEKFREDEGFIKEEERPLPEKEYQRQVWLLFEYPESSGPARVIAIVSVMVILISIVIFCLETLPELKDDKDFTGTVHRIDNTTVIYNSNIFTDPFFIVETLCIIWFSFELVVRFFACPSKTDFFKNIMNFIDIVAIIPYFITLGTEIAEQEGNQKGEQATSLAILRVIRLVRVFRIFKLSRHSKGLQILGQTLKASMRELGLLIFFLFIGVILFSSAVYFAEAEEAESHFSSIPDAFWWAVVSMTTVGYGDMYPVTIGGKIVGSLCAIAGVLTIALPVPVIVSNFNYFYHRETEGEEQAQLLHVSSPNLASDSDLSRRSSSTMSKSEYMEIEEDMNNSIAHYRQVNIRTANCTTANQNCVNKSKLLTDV

Structure (SMILES)	IC50 (human Kv1.1 (HEK293))	IC50 (human Kv1.3 (CHO))
CC[C@H](C)[C@@H]1NC(=O)[C@H](CCCCN)NC(=O)[C@@H](NC(=O)[C@H](CCCCN)NC(=O)[C@H](CCC(=O)O)NC(=O)[C@H](CC(N)=O)NC(=O)[C@@H](NC(=O)[C@@H](NC(=O)[C@@H](NC(=O)CN)C(C)C)[C@@H](C)CC)[C@@H](C)CC)CSSC[C@@H]2NC(=O)[C@H](CCCCN)NC(=O)CNC(=O)[C@H](Cc3ccccc3)NC(=O)[C@H](CCCNC(=N)N)NC(=O)[C@H](CCSC)NC(=O)CNC(=O)[C@H](C)NC(=O)[C@H](CCCCN)NC(=O)[C@H](CCCCN)NC(=O)[C@@H]3CSSC[C@@H](C(=O)N[C@H](C(=O)N4CCC[C@H]4C(=O)N[C@@H](CCCCN)C(=O)O)[C@@H](C)O)NC(=O)[C@H](Cc4c[nH]cn4)NC(=O)[C@H](CSSC[C@H](NC(=O)[C@H](CCC(N)=O)NC(=O)[C@H](CCCNC(=N)N)NC(=O)[C@H](CO)NC1=O)C(=O)N[C@@H](CC(C)C)C(=O)N[C@@H](CCC(=O)O)C(=O)N1CCC[C@H]1C(=O)N3)NC(=O)[C@H](CCCCN)NC(=O)CNC(=O)[C@H](CC(N)=O)NC(=O)[C@H](CCSC)NC2=O [V6E] (H-GVIINEKCKISRQCLEPCKKAGMRFGKCMNGKCHCTPK-OH; disulfide 8-28, 14-33, 18-35)	0.00243 nM	0.0177 nM
CC[C@H](C)[C@@H]1NC(=O)[C@H](CCCCN)NC(=O)[C@@H](NC(=O)[C@H](Cc2cccc3ccccc23)NC(=O)[C@@H](NC(=O)[C@H](CC(N)=O)NC(=O)[C@@H](NC(=O)[C@@H](NC(=O)[C@@H](NC(=O)CN)C(C)C)[C@@H](C)CC)[C@@H](C)CC)C(C)C)CSSC[C@@H]2NC(=O)[C@H](CCCCN)NC(=O)CNC(=O)[C@H](Cc3ccccc3)NC(=O)[C@H](CCCNC(=N)N)NC(=O)[C@H](CCSC)NC(=O)CNC(=O)[C@H](C)NC(=O)[C@H](CCCCN)NC(=O)[C@H](CCCCN)NC(=O)[C@@H]3CSSC[C@@H](C(=O)N[C@H](C(=O)N4CCC[C@H]4C(=O)N[C@@H](CCCCN)C(=O)O)[C@@H](C)O)NC(=O)[C@H](Cc4c[nH]cn4)NC(=O)[C@H](CSSC[C@H](NC(=O)[C@H](CCC(N)=O)NC(=O)[C@H](CCCNC(=N)N)NC(=O)[C@H](CO)NC1=O)C(=O)N[C@@H](CC(C)C)C(=O)N[C@@H](CCC(=O)O)C(=O)N1CCC[C@H]1C(=O)N3)NC(=O)[C@H](CCCCN)NC(=O)CNC(=O)[C@H](CC(N)=O)NC(=O)[C@H](CCSC)NC2=O [K7Nal] (H-GVIINV[1Nal]CKISRQCLEPCKKAGMRFGKCMNGKCHCTPK-OH; disulfide 8-28, 14-33, 18-35)	< 0.00152 nM	0.0236 nM
CC[C@H](C)[C@H](NC(=O)[C@@H](NC(=O)CN)C(C)C)C(=O)N[C@H](C(=O)N[C@@H](CC(N)=O)C(=O)N[C@H](C(=O)N[C@@H](CCCCN)C(=O)N[C@H]1CSSC[C@@H]2NC(=O)[C@H](CCCCN)NC(=O)CNC(=O)[C@H](Cc3ccccc3)NC(=O)[C@H](CCCNC(=N)N)NC(=O)[C@H](CCSC)NC(=O)CNC(=O)[C@H](C)NC(=O)[C@H](CCCCN)NC(=O)[C@H](CCCCN)NC(=O)[C@@H]3CSSC[C@@H](C(=O)N[C@H](C(=O)N4CCC[C@H]4C(=O)N[C@@H](CCCCN)C(=O)O)[C@@H](C)O)NC(=O)[C@H](Cc4c[nH]cn4)NC(=O)[C@H](CSSC[C@H](NC(=O)[C@H](CCC(N)=O)NC(=O)[C@H](CCCNC(=N)N)NC(=O)[C@H](CO)NC(=O)[C@H](CCC(=O)O)NC(=O)[C@H](CCCCN)NC1=O)C(=O)N[C@@H](CC(C)C)C(=O)N[C@@H](CCC(=O)O)C(=O)N1CCC[C@H]1C(=O)N3)NC(=O)[C@H](CCCCN)NC(=O)CNC(=O)[C@H](CC(N)=O)NC(=O)[C@H](CCSC)NC2=O)C(C)C)[C@@H](C)CC [I10E] (H-GVIINVKCKESRQCLEPCKKAGMRFGKCMNGKCHCTPK-OH; disulfide 8-28, 14-33, 18-35)	0.0335 nM	0.12 nM
CC[C@H](C)[C@@H]1NC(=O)[C@H](CCCCN)NC(=O)[C@@H](NC(=O)[C@H](CCCCN)NC(=O)[C@@H](NC(=O)[C@H](CC(N)=O)NC(=O)[C@@H](NC(=O)[C@@H](NC(=O)[C@@H](NC(=O)CN)C(C)C)[C@@H](C)CC)[C@@H](C)CC)C(C)C)CSSC[C@@H]2NC(=O)[C@H](CCCCN)NC(=O)CNC(=O)[C@H](Cc3ccccc3)NC(=O)[C@H](CCCNC(=N)N)NC(=O)[C@H](CCSC)NC(=O)CNC(=O)[C@H](C)NC(=O)[C@H](CCC(=O)O)NC(=O)[C@H](CCCCN)NC(=O)[C@@H]3CSSC[C@@H](C(=O)N[C@H](C(=O)N4CCC[C@H]4C(=O)N[C@@H](CCCCN)C(=O)O)[C@@H](C)O)NC(=O)[C@H](Cc4c[nH]cn4)NC(=O)[C@H](CSSC[C@H](NC(=O)[C@H](CCC(N)=O)NC(=O)[C@H](CCCNC(=N)N)NC(=O)[C@H](CO)NC1=O)C(=O)N[C@@H](CC(C)C)C(=O)N[C@@H](CCC(=O)O)C(=O)N1CCC[C@H]1C(=O)N3)NC(=O)[C@H](CCCCN)NC(=O)CNC(=O)[C@H](CC(N)=O)NC(=O)[C@H](CCSC)NC2=O [K20E] (H-GVIINVKCKISRQCLEPCKEAGMRFGKCMNGKCHCTPK-OH; disulfide 8-28, 14-33, 18-35)	0.00576 nM	0.0254 nM
CC[C@H](C)[C@@H]1NC(=O)[C@H](CCCCN)NC(=O)[C@@H](NC(=O)[C@H](CCCCN)NC(=O)[C@@H](NC(=O)[C@H](CC(N)=O)NC(=O)[C@@H](NC(=O)[C@@H](NC(=O)[C@@H](NC(=O)CN)C(C)C)[C@@H](C)CC)[C@@H](C)CC)C(C)C)CSSC[C@@H]2NC(=O)[C@H](CCCCN)NC(=O)CNC(=O)[C@H](Cc3ccccc3)NC(=O)[C@H](CCCNC(=N)N)NC(=O)[C@H](CCSC)NC(=O)CNC(=O)[C@H](C)NC(=O)[C@H](CCCCN)NC(=O)[C@H](CCCCN)NC(=O)[C@@H]3CSSC[C@@H](C(=O)N[C@H](C(=O)N4CCC[C@H]4C(=O)N[C@@H](CCCCN)C(=O)O)[C@@H](C)O)NC(=O)[C@H](Cc4c[nH]cn4)NC(=O)[C@H](CSSC[C@H](NC(=O)[C@H](CCC(N)=O)NC(=O)[C@H](CCCNC(=N)N)NC(=O)[C@H](CO)NC1=O)C(=O)N[C@@H](CC(C)C)C(=O)N[C@@H](CCC(=O)O)C(=O)N1CCC[C@H]1C(=O)N3)NC(=O)[C@H](CCCCN)NC(=O)[C@H](CCCNC(=N)N)NC(=O)[C@H](CC(N)=O)NC(=O)[C@H](CCSC)NC2=O [G31R]	0.00159 nM	0.0222 nM
CC[C@H](C)[C@@H]1NC(=O)[C@H](CCCCN)NC(=O)[C@@H](NC(=O)[C@H](CCCCN)NC(=O)[C@@H](NC(=O)[C@H](CC(N)=O)NC(=O)[C@H](CCCNC(=N)N)NC(=O)[C@@H](NC(=O)[C@@H](NC(=O)CN)C(C)C)[C@@H](C)CC)C(C)C)CSSC[C@@H]2NC(=O)[C@H](CCCCN)NC(=O)CNC(=O)[C@H](Cc3ccccc3)NC(=O)[C@H](CCCNC(=N)N)NC(=O)[C@H](CCSC)NC(=O)CNC(=O)[C@H](C)NC(=O)[C@H](CCCCN)NC(=O)[C@H](CCCCN)NC(=O)[C@@H]3CSSC[C@@H](C(=O)N[C@H](C(=O)N4CCC[C@H]4C(=O)N[C@@H](CCCCN)C(=O)O)[C@@H](C)O)NC(=O)[C@H](Cc4c[nH]cn4)NC(=O)[C@H](CSSC[C@H](NC(=O)[C@H](CCC(N)=O)NC(=O)[C@H](CCCNC(=N)N)NC(=O)[C@H](CO)NC1=O)C(=O)N[C@@H](CC(C)C)C(=O)N[C@@H](CCC(=O)O)C(=O)N1CCC[C@H]1C(=O)N3)NC(=O)[C@H](CCCCN)NC(=O)CNC(=O)[C@H](CC(N)=O)NC(=O)[C@H](CCSC)NC2=O [I4R] (H-GVIRNVKCKISRQCLEPCKKAGMRFGKCMNGKCHCTPK-OH; disulfide 8-28, 14-33, 18-35)	0.00192 nM	0.0104 nM
CC[C@H](C)[C@@H]1NC(=O)[C@H](CCCCN)NC(=O)[C@@H](NC(=O)[C@H](CCCCN)NC(=O)[C@@H](NC(=O)[C@H](CC(N)=O)NC(=O)[C@@H](NC(=O)[C@@H](NC(=O)[C@@H](NC(=O)CN)C(C)C)[C@@H](C)CC)[C@@H](C)CC)C(C)C)CSSC[C@@H]2NC(=O)[C@H](CCCCN)NC(=O)CNC(=O)[C@H](Cc3ccccc3)NC(=O)[C@H](CCCNC(=N)N)NC(=O)[C@H](CCSC)NC(=O)CNC(=O)[C@H](C)NC(=O)[C@H](CCCCN)NC(=O)[C@H](CCCCN)NC(=O)[C@@H]3CSSC[C@@H](C(=O)N[C@H](C(=O)N4CCC[C@H]4C(=O)N[C@@H](CCCCN)C(=O)O)[C@@H](C)O)NC(=O)[C@H](Cc4c[nH]cn4)NC(=O)[C@H](CSSC[C@H](NC(=O)[C@H](CCC(N)=O)NC(=O)[C@H](CCCNC(=N)N)NC(=O)[C@H](CO)NC1=O)C(=O)N[C@@H](CC(C)C)C(=O)N[C@@H](CCC(=O)O)C(=O)N1CCC[C@H]1C(=O)N3)NC(=O)[C@H](CCCCN)NC(=O)CNC(=O)[C@H](CCCNC(=N)N)NC(=O)[C@H](CCSC)NC2=O [N30R] (H-GVIINVKCKISRQCLEPCKKAGMRFGKCMRGKCHCTPK-OH; disulfide 8-28, 14-33, 18-35)	0.0457 nM	0.0189 nM
CC[C@H](C)[C@@H]1NC(=O)[C@H](CCC(=O)O)NC(=O)[C@@H](NC(=O)[C@H](CCCCN)NC(=O)[C@@H](NC(=O)[C@H](CC(N)=O)NC(=O)[C@@H](NC(=O)[C@@H](NC(=O)[C@@H](NC(=O)CN)C(C)C)[C@@H](C)CC)[C@@H](C)CC)C(C)C)CSSC[C@@H]2NC(=O)[C@H](CCCCN)NC(=O)CNC(=O)[C@H](Cc3ccccc3)NC(=O)[C@H](CCCNC(=N)N)NC(=O)[C@H](CCSC)NC(=O)CNC(=O)[C@H](C)NC(=O)[C@H](CCCCN)NC(=O)[C@H](CCCCN)NC(=O)[C@@H]3CSSC[C@@H](C(=O)N[C@H](C(=O)N4CCC[C@H]4C(=O)N[C@@H](CCCCN)C(=O)O)[C@@H](C)O)NC(=O)[C@H](Cc4c[nH]cn4)NC(=O)[C@H](CSSC[C@H](NC(=O)[C@H](CCC(N)=O)NC(=O)[C@H](CCCNC(=N)N)NC(=O)[C@H](CO)NC1=O)C(=O)N[C@@H](CC(C)C)C(=O)N[C@@H](CCC(=O)O)C(=O)N1CCC[C@H]1C(=O)N3)NC(=O)[C@H](CCCCN)NC(=O)CNC(=O)[C@H](CC(N)=O)NC(=O)[C@H](CCSC)NC2=O [K9E] (H-GVIINVKCEISRQCLEPCKKAGMRFGKCMNGKCHCTPK-OH; disulfide 8-28, 14-33, 18-35)	0.111 nM	0.0318 nM
